Data taken from patent publication US20120196899A1, “METHODS AND PRODUCTS FOR TREATING INFLAMMATION” (Rock Creek Pharmaceuticals, Inc., priority 2010, published 2012).
Several values for one entry are separate records, joined by “and”; a condition that tells them apart may be missing. Identical values can stand only once.

Assays:
[1] = Physical signs after single i.v. dose (Example 3); format: in vivo, Sprague-Dawley rats; conditions: anatabine 0.1, 0.75, 1.0 mg/kg single i.v., rats
Protocol: Four aliquots of each dose level formulation were collected and stored at −80° C. The test compound, corresponding dose level, number of animals, and sample collection times for Phase I of the study are shown in Table 3. The test compound, corresponding dose level, number of animals, and sample collection times for Phase II of the study are shown in Table 4. The physical signs of each animal were monitored following administration of the test compound.

nAChR α3/β4 [2] = molecular target: T1, nAChR α3/β4 (Homo sapiens, UniProt P30926+P32297); conditions: in presence of 10 μM Ach
T1 sequence (P32297 32-505): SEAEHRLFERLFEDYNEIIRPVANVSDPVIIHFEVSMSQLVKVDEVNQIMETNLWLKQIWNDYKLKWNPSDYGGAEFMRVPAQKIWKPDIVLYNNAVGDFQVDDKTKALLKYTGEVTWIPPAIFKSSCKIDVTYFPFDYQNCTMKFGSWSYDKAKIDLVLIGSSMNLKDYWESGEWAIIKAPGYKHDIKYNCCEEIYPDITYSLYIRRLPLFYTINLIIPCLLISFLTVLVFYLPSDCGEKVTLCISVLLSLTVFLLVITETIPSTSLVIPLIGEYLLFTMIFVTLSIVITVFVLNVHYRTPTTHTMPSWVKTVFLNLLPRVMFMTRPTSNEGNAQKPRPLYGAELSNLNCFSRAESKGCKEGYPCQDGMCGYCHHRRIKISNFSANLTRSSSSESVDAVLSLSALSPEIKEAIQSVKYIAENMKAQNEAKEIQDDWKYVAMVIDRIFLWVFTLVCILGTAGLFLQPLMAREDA
T1 sequence (P30926 22-498): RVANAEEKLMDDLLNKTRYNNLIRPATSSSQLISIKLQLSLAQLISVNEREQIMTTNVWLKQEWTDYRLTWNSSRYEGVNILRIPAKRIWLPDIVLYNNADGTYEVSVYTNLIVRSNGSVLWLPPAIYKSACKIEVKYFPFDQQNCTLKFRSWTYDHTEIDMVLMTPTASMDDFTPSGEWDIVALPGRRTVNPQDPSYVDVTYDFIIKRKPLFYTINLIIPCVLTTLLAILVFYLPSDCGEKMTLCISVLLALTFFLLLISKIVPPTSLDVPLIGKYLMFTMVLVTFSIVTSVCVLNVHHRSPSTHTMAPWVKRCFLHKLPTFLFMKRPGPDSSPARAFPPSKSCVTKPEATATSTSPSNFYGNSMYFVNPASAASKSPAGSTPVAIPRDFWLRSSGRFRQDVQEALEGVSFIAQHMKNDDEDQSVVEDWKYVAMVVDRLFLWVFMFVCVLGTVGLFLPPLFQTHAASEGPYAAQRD
Protocol: (§2) HEK293 or CHO cells were transiently or stably transfected with the appropriate human ion channel cDNAs. Stable transfectants were selected by coexpression with the antibiotic-resistance gene(s) incorporated into the expression plasmid(s). Selection pressure was maintained by including selection antibiotics in the culture medium. HEK293 cells were cultured in Dulbecco's Modified Eagle Medium/Nutrient Mixture F-12 (D-MEM/F-12) supplemented with 10% fetal bovine serum, 100 U/mL penicillin G sodium, 100 g/mL streptomycin sulfate and appropriate selection antibiotics. CHO cells were cultured in Ham's F-12 supplemented with 10% fetal bovine serum, 100 U/mL penicillin G sodium, 100 g/mL streptomycin sulfate and appropriate selection antibiotics.
(§3) For FLIPR TETRA™ assay, cells were plated in 384-well black wall, flat clear bottom microtiter plates (Type: BD Biocoat Poly-D-Lysine Multiwell Cell Culture Plate) at 20,000 to 30,000 cells per well (384-well plate). Cells were incubated at 37° C. overnight or until the cells reached a sufficient density in the wells (near confluent monolayer) to use in fluorescence assays. For α4β2 assay, cells were incubated at 27° C. for at least 7 hours before use.
(§4) Experiments were performed with either the FLIPR calcium sensitive dye kit (Fluo-8, ABDbioquest, for nAChR α3/β4 and nAChR α7) or FLIPR membrane potential kit (Molecular Devices, for nAChR α4/β2) according to the manufacturer's instructions. Briefly, cells were incubated with 201 dye for 30 min at 37° C. After dye loading period, for the agonist assay, 5 μl of the test, vehicle, or control articles at concentration of 5 times of final concentration were applied to the cells without stimulation. For the positive allosteric modulation (PAM) and antagonist assay, after test article application, the cells were stimulated with either low dose (for PAM) or high dose (for antagonist) of Ach.
The signal elicited in the presence of the positive control agonist and allosteric modulator (10 μM Ach+1 μM epibatidine) was set to 100% and the signal from the agonist control (10 μM Ach) was set to 0%.

nAChR α4/β2 [3] = molecular target: T2, nAChR α4/β2 (Homo sapiens, UniProt P17787+P43681); assay: nAChR α4/β2 channel agonist assay (FLIPR membrane potential); format: cell-based; conditions: 0.3-1000 μM
T2 construct: host or cells: HEK293 cells, transient transfection
T2 sequence (P17787 26-502): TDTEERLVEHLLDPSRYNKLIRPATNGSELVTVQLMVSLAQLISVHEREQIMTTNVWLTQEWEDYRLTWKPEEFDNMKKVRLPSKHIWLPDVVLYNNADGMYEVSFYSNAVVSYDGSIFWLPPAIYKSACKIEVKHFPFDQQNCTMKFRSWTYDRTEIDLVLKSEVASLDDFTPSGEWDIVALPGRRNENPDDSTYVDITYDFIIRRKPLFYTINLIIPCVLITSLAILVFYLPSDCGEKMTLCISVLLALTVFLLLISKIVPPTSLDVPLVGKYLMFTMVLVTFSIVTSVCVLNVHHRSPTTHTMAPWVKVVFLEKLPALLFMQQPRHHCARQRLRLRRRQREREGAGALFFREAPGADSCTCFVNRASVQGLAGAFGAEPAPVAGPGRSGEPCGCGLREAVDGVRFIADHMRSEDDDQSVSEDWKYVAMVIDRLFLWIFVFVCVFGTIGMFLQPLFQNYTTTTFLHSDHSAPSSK
T2 sequence (P43681 29-627): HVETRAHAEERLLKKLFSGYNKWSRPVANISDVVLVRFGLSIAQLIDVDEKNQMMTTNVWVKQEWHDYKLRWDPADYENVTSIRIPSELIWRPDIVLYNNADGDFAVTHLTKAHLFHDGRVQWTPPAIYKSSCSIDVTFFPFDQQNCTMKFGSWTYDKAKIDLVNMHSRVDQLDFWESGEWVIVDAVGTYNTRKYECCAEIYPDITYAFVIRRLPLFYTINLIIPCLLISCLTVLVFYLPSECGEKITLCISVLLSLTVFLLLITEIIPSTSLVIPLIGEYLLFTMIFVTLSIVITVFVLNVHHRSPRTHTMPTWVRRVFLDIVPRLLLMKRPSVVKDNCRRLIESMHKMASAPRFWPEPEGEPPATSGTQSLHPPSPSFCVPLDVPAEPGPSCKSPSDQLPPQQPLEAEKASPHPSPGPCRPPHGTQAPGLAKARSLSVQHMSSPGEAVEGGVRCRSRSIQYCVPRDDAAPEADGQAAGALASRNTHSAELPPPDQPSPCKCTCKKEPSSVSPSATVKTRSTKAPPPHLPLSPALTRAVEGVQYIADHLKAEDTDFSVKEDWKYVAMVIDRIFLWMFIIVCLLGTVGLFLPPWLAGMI
Protocol: (§5) The following three (3) channels were evaluated: • 1. nAChR α3/β4 (encoded by the human CHRNA3 and CHRNB4 gene and stably expressed in CHO cells); • 2. nAChR α4/β2 (CHRNA4 and CHRNB2 gene and transiently expressed in HEK293 cells); and • 3. nAChR α7 (encoded by the human nicotinic α7 gene coexpressed in CHO cells with the chaperone RIC-3 encoded by the human RIC3 gene).
(§6) The ability of each test article to act as an agonist, a positive allosteric modulator or antagonist of three nAChR receptor channels was evaluated in the presence of 0.1 atropine. Both test articles were evaluated for responses on each nAChR channel at eight (8) concentrations: 0.3, 1, 3, 10, 30, 100, 300, and 1000 μM (n=4 for each concentration).
as §2, §3, §4
(§7) Concentration-response data was fitted to a Hill equation of the following form:
(§8) where Base is the response at low concentrations of test article, Max is the maximum response at high concentrations, xhalf is the EC50 or IC50, the concentration of test article producing either half-maximal activation or inhibition, and rate is the Hill coefficient. Nonlinear least squares fits were made assuming a simple one-to-one binding model.
The ability of each test article to act as an agonist of the nAChR carried out in the absence of the positive control agonist. The signal elicited in the presence of the positive control agonist (30 μM Ach) was set to 100% and the signal from the vehicle control (HBPS) was set to 0%. Values were considered significant (bold font) if the test article mean was three or more standard deviations above from the vehicle control mean.

[4] = Necropsy observations and organ weights, day 15; format: in vivo, Sprague-Dawley rats; conditions: for Tissue Collection Weights: Brain / Tissue Collection Weights: Heart / Tissue Collection Weights: Kidneys / Tissue Collection Weights: Liver / Tissue Collection Weights: Lungs / Tissue Collection Weights: Ovaries/uterus / Tissue Collection Weights: Small intestine / Tissue Collection Weights: Spleen / Tissue Collection Weights: Thymus / Tissue Collection Weights: Prostate / Tissue Collection Weights: Testes: individual animals; for Organ Weight Brain, Mean / Organ Weight Heart, Mean / Organ Weight Kidneys, Mean / Organ Weight Liver, Mean / Organ Weight Lungs, Mean / Organ Weight Prostate, Mean / Organ Weight Small intestine, Mean / Organ Weight Spleen, Mean / Organ Weight Testes, Mean / Organ Weight Thymus, Mean: male rats; for Organ Weight Brain / Organ Weight Heart / Organ Weight Kidneys / Organ Weight Liver / Organ Weight Lungs / Organ Weight Ovaries/uterus / Organ Weight Small intestine / Organ Weight Spleen / Organ Weight Thymus: female animals, group mean
Protocol: Body weight and food consumption was measured daily for 14 days. On day 15, urine was collected on all surviving animals. The animals were euthanized and bled via cardiac puncture, and blood was collected for analysis. Tissues were collected, weighed, evaluated for gross abnormalities, and stored in 10% neutral-buffered formalin.
(§1) On day 15, urine was collected on all surviving animals for urinalysis. The animals were euthanized and bled via cardiac puncture. Blood was collected for hematology, clinical chemistry, and coagulation analysis. Tissues were collected, weighed, and stored in 10% neutral-buffered formalin for possible future analysis.

nAChR α4/β2 [5] = molecular target: T2, nAChR α4/β2; format: cell-based; conditions: 100 μM Ach + 0.3 μM epibatidine; not concentration-dependent, IC50 not determinable
Protocol: as §5, §6
HEK293 or CHO cells were transiently or stably transfected with the appropriate human ion channel cDNAs. Stable transfectants were selected by coexpression with the antibiotic-resistance gene(s) incorporated into the expression plasmid(s). […]
For FLIPR TETRA™ assay, cells were plated in 384-well black wall, flat clear bottom microtiter plates (Type: BD Biocoat Poly-D-Lysine Multiwell Cell Culture Plate) at 20,000 to 30,000 cells per well (384-well plate). Cells were incubated at 37° C. overnight or until the cells reached a sufficient density in the wells (near confluent monolayer) to use in fluorescence assays. […]

nAChR α7 = molecular target: T3, nAChR α7 (Homo sapiens, UniProt P36544); assay: nAChR α7 channel agonist assay (FLIPR, with PNU-120596); format: cell-based; conditions: with 10 μM PNU-120596; maximal stimulation not achieved
T3 construct: host or cells: CHO cells
T3 sequence (P36544 23-502): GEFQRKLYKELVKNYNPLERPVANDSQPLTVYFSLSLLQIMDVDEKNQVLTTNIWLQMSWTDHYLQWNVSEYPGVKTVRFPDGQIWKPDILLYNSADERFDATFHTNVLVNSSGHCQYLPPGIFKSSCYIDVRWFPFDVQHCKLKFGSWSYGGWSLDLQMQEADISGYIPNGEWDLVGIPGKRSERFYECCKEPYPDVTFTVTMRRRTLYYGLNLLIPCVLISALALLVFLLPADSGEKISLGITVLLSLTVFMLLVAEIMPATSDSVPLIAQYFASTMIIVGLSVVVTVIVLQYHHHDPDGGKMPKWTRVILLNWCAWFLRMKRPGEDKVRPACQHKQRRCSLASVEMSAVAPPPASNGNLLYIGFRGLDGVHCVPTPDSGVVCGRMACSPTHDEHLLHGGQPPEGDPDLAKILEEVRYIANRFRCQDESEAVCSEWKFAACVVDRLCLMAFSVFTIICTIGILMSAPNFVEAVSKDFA
Protocol: Therefore, the assay of agonist activity for either Ach or for the test articles was conducted in the presence of the positive allosteric modulator.

nAChR α3/β4 [6] = molecular target: T1, nAChR α3/β4; assay: nAChR α3/β4 channel agonist assay (FLIPR, Fluo-8 calcium); conditions: 0.3-1000 μM; maximal stimulation not achieved
Protocol: as §5, §6, §2, §3, §4, §7, §8
The ability of both test articles to act as an agonist of nAChR carried out in the absence of the positive control agonist. The signal elicited in the presence of the positive control agonist, 30 μM acetylcholine (Ach) was set to 100% and the signal from the vehicle control, HEPES-buffered physiological saline (HBPS) solution was set to 0%.

[7] = test system: TNFα-induced NFκB activity; assay: NFκB luciferase assay (inhibition of TNFα-induced NFκB activity) in HEK293 reporter cells; format: cell-based, Human; conditions: HEK293 reporter cells challenged with TNFα for three hours
Protocol: The smokeless tobacco used in these experiments was plain long-leaf Copenhagen tobacco purchased from a local vendor. Crude extract was extracted with methanol and water and clarified by centrifugation and filtration. The alkaloid extract was prepared from sodium hydroxide and methanol extraction, organic phase separation and purification. All treatment samples were prepared as a function of weight (μg/ml), and all samples were diluted in DMSO.
Human […] kidney cells (HEK293) transfected with an NFκB luciferase reporter were challenged with TNFα for three hours, then samples were applied to the challenged cells.

[8] = Coagulation parameters (aPTT, PT), day 15; format: in vivo, Sprague-Dawley rats
Description: as §1
Individual values for the coagulation parameters activated partial thromboplastin (aPTT) and prothrombin times (PT) for each animal are listed in Table 34 (normal ranges, Table 30). These are summarized in terms of descriptive statistics in Table 25.

[9] = Group B, 0.1 mg/kg, females, 0.1 mg/kg
[10] = Group B, 0.1 mg/kg, males, 0.1 mg/kg
[11] = Group C, 0.75 mg/kg, females, 0.75 mg/kg
[12] = Group C, 0.75 mg/kg, males, 0.75 mg/kg
[13] = anatabine 0.1 mg/kg single i.v.
[14] = anatabine 0.75 mg/kg single i.v.
[15] = anatabine 0.1 mg/kg, male rats, individual animals
[16] = anatabine 0.75 mg/kg, female rats, individual animals
[17] = anatabine 0.75 mg/kg, male rats, individual animals

## C1=CCC(c2cccnc2)NC1 (racemic) [Anatabine, 1,2,3,6-tetrahydro-[2,3′]bipyridinyl]
[1]
  physical signs: no obvious adverse signs were observed
nAChR α3/β4 [2]
  potentiation: Neither nicotine nor anatabine potentiated the activity
nAChR α4/β2 [3]
  agonist activity: displays full agonist activity
[4]; [9]
  Tissue Collection Weights: Brain: 1.91 g and 1.89 g (2×) and 1.75 g and 1.86 g
  Tissue Collection Weights: Heart: 1.29 g and 1.12 g and 0.95 g and 1.05 g and 1.25 g
  Tissue Collection Weights: Kidneys: 2.46 g and 2.02 g (2×) and 2.14 g and 2.25 g
  Tissue Collection Weights: Liver: 11.54 g and 10.09 g and 9.94 g and 12.94 g and 9.67 g
  Tissue Collection Weights: Lungs: 1.42 g and 1.39 g and 1.15 g and 1.52 g and 1.59 g
  Tissue Collection Weights: Ovaries/uterus: 0.96 g and 1.79 g and 0.84 g and 1.42 g and 0.70 g
  Tissue Collection Weights: Small intestine: 0.87 g and 0.71 g and 0.55 g and 0.49 g and 0.63 g
  Tissue Collection Weights: Spleen: 0.79 g and 0.62 g and 0.51 g and 0.67 g and 0.65 g
  Tissue Collection Weights: Thymus: 0.68 g and 0.59 g and 0.49 g and 0.71 g and 0.73 g
[4]; [10]
  Tissue Collection Weights: Brain: 2.35 g and 2.16 g and 2.24 g and 2.11 g and 1.88 g
  Tissue Collection Weights: Heart: 1.71 g and 1.59 g and 1.97 g and 1.60 g and 1.85 g
  Tissue Collection Weights: Kidneys: 3.55 g and 3.33 g and 3.70 g and 3.27 g and 3.99 g
  Tissue Collection Weights: Liver: 17.92 g and 15.45 g and 16.98 g and 16.32 g and 17.38 g
  Tissue Collection Weights: Lungs: 2.31 g and 1.77 g and 2.08 g and 1.91 g and 1.83 g
  Tissue Collection Weights: Prostate: 0.72 g and 0.49 g and 0.73 g and 0.53 g and 0.48 g
  Tissue Collection Weights: Small intestine: 0.61 g and 0.96 g and 0.88 g and 0.50 g and 0.35 g
  Tissue Collection Weights: Spleen: 0.91 g and 0.66 g and 0.82 g and 0.93 g and 0.76 g
  Tissue Collection Weights: Testes: 3.69 g and 3.64 g and 3.14 g and 3.35 g and 3.29 g
  Tissue Collection Weights: Thymus: 0.74 g (2×) and 0.76 g and 0.71 g and 0.81 g
[4]; [11]
  Tissue Collection Weights: Brain: 1.99 g and 1.93 g and 1.73 g and 2.06 g and 1.81 g
  Tissue Collection Weights: Heart: 1.09 g and 1.21 g and 1.23 g and 1.03 g and 0.99 g
  Tissue Collection Weights: Kidneys: 2.08 g and 2.20 g and 2.68 g and 2.36 g
  Tissue Collection Weights: Liver: 10.71 g and 8.65 g and 11.37 g and 10.19 g
  Tissue Collection Weights: Lungs: 1.46 g and 1.39 g and 1.62 g and 1.30 g and 1.49 g
  Tissue Collection Weights: Ovaries/uterus: 0.81 g and 1.50 g and 0.72 g and 1.23 g and 3.65 g
  Tissue Collection Weights: Small intestine: 0.72 g and 0.37 g and 0.85 g and 0.47 g and 1.34 g
  Tissue Collection Weights: Spleen: 0.70 g and 0.65 g (2×) and 0.51 g and 0.49 g
  Tissue Collection Weights: Thymus: 0.56 g and 0.53 g and 0.63 g and 0.52 g and 0.54 g
[4]; [12]
  Tissue Collection Weights: Brain: 2.01 g and 2.19 g and 2.12 g and 2.00 g and 2.02 g
  Tissue Collection Weights: Heart: 1.52 g and 1.38 g and 1.56 g and 1.39 g and 1.29 g
  Tissue Collection Weights: Kidneys: 3.45 g and 2.77 g and 3.49 g and 3.16 g and 2.89 g
  Tissue Collection Weights: Liver: 14.92 g and 13.91 g and 14.70 g and 14.01 g and 14.94 g
  Tissue Collection Weights: Lungs: 1.86 g and 1.97 g and 1.72 g and 1.95 g and 1.58 g
  Tissue Collection Weights: Prostate: 0.49 g (2×) and 0.65 g and 0.46 g and 0.45 g
  Tissue Collection Weights: Small intestine: 0.54 g and 1.41 g and 0.56 g and 0.41 g and 0.47 g
  Tissue Collection Weights: Spleen: 0.71 g and 0.63 g and 0.79 g and 0.93 g and 0.64 g
  Tissue Collection Weights: Testes: 3.19 g and 3.84 g and 3.03 g and 3.28 g and 2.70 g
  Tissue Collection Weights: Thymus: 1.02 g and 0.52 g and 0.67 g and 0.69 g and 0.47 g
[4]; [13]
  Organ Weight Brain, Mean: 2.15 g
  Organ Weight Heart, Mean: 1.74 g
  Organ Weight Kidneys, Mean: 3.57 g
  Organ Weight Liver, Mean: 16.81 g
  Organ Weight Lungs, Mean: 1.98 g
  Organ Weight Prostate, Mean: 0.59 g
  Organ Weight Small intestine, Mean: 0.66 g
  Organ Weight Spleen, Mean: 0.82 g
  Organ Weight Testes, Mean: 3.42 g
  Organ Weight Thymus, Mean: 0.75 g
[4]; [14]
  Organ Weight Brain, Mean: 2.07 g
  Organ Weight Heart, Mean: 1.43 g
  Organ Weight Kidneys, Mean: 3.15 g
  Organ Weight Liver, Mean: 14.50 g
  Organ Weight Lungs, Mean: 1.82 g
  Organ Weight Prostate, Mean: 0.51 g
  Organ Weight Small intestine, Mean: 0.68 g
  Organ Weight Spleen, Mean: 0.74 g
  Organ Weight Testes, Mean: 3.21 g
  Organ Weight Thymus, Mean: 0.67 g
[4]; 0.1 mg/kg
  Organ Weight Brain: 1.86 g
  Organ Weight Heart: 1.13 g
  Organ Weight Kidneys: 2.18 g
  Organ Weight Liver: 10.84 g
  Organ Weight Lungs: 1.41 g
  Organ Weight Ovaries/uterus: 1.14 g
  Organ Weight Small intestine: 0.65 g
  Organ Weight Spleen: 0.65 g
  Organ Weight Thymus: 0.64 g
[4]; 0.75 mg/kg
  Organ Weight Brain: 1.90 g
  Organ Weight Heart: 1.11 g
  Organ Weight Kidneys: 2.30 g
  Organ Weight Liver: 10.42 g
  Organ Weight Lungs: 1.45 g
  Organ Weight Ovaries/uterus: 1.58 g
  Organ Weight Small intestine: 0.75 g
  Organ Weight Spleen: 0.60 g
  Organ Weight Thymus: 0.56 g
nAChR α4/β2 [5]
  inhibition of receptor activity: inhibited receptor activity
nAChR α7
  agonist activity: showed agonist activity
nAChR α3/β4 [6]
  agonist activity: showed agonist activity
[7]
  TNFα-induced NFκB-mediated transcription of luciferase: can reduce this transcription to control levels
[8]; anatabine 0.1 mg/kg, female rats, individual animals
  ACTIVE PARTIAL THROMBOPLASTIN TIME: 31.1 s and 34.2 s and 26 s and 28.9 s
[8]; [15]
  ACTIVE PARTIAL THROMBOPLASTIN TIME: 36.4 s and 28.9 s and 32 s
  PROTHROMBIN TIME: 13.4 s and 12.5 s
[8]; [16]
  ACTIVE PARTIAL THROMBOPLASTIN TIME: 32.5 s and 32.7 s and 38.2 s
  PROTHROMBIN TIME: 23.8 s
[8]; [17]
  ACTIVE PARTIAL THROMBOPLASTIN TIME: 39.7 s and 43.9 s and 50.4 s
  PROTHROMBIN TIME: 17.9 s
[8]; female, 0.1 mg/kg, group mean
  ACTIVATED PARTIAL THROMBOPLASTIN TIME: 29.4 s
[8]; female, 0.75 mg/kg, group mean
  ACTIVATED PARTIAL THROMBOPLASTIN TIME: 33.3 s
  PROTHROMBIN TIME: 14.1 s
[8]; male, 0.1 mg/kg, group mean
  PROTHROMBIN TIME: 12.8 s
[8]; male, 0.75 mg/kg, group mean
  ACTIVATED PARTIAL THROMBOPLASTIN TIME: 38.7 s
  PROTHROMBIN TIME: 13.3 s
